From ChEMBL document CHEMBL3774354, “Discovery of Selective Histone Deacetylase 6 Inhibitors Using the Quinazoline as the Cap for the Treatment of Cancer” (J Med Chem, 2016)
Calls of active or inactive are those of the source. The calls are words filed in the database; no cut-off is given here.

Assays:
[1] = AUC (0 to infinity) in Sprague-Dawley rat at 12 mg/kg, iv administered by bolus injection measured up to 24 hrs by LC-MS/MS analysis; format: ADME, organism-based; set-up: dose 12 mg/kg, route intravenous, time infinity; details: in vivo
[2] = biological target: Histone deacetylase 9 (Homo sapiens, UniProt Q9UKV0)
Description: Inhibition of recombinant HDAC9 (unknown origin) using AMC labeled AC-peptide as substrate incubated for 1 hr by fluorescence analysis

[3] = system: Mus musculus; test: Toxicity in NOD/SCID mouse xenografted with human Ramos cells assessed as death at 40 mg/kg, po q2d for 6 days; format: organism-based; details: in vivo, 144 h
[4] = system: MV4-11; test: Antitumor activity against human MV4-11 cells xenografted in NOD/SCID mouse assessed as tumor mass change at 50 mg/kg, iv q2d for 12 days; format: functional
[5] = Cytotoxicity against human SKOV3 cells after 72 hrs by MTT assay; format: functional, cell-based; details: SK-OV-3, 72 h
[6] = biological target: T1, Protein deacetylase HDAC6 (Homo sapiens) (UniProt Q9UBN7); test: Inhibition of HDAC6 in human MV4-11 cells assessed as upregulation of alpha- tubulin acetylation after 6 hrs by Western blot analysis; format: cell-based
T1 sequence (whole entry): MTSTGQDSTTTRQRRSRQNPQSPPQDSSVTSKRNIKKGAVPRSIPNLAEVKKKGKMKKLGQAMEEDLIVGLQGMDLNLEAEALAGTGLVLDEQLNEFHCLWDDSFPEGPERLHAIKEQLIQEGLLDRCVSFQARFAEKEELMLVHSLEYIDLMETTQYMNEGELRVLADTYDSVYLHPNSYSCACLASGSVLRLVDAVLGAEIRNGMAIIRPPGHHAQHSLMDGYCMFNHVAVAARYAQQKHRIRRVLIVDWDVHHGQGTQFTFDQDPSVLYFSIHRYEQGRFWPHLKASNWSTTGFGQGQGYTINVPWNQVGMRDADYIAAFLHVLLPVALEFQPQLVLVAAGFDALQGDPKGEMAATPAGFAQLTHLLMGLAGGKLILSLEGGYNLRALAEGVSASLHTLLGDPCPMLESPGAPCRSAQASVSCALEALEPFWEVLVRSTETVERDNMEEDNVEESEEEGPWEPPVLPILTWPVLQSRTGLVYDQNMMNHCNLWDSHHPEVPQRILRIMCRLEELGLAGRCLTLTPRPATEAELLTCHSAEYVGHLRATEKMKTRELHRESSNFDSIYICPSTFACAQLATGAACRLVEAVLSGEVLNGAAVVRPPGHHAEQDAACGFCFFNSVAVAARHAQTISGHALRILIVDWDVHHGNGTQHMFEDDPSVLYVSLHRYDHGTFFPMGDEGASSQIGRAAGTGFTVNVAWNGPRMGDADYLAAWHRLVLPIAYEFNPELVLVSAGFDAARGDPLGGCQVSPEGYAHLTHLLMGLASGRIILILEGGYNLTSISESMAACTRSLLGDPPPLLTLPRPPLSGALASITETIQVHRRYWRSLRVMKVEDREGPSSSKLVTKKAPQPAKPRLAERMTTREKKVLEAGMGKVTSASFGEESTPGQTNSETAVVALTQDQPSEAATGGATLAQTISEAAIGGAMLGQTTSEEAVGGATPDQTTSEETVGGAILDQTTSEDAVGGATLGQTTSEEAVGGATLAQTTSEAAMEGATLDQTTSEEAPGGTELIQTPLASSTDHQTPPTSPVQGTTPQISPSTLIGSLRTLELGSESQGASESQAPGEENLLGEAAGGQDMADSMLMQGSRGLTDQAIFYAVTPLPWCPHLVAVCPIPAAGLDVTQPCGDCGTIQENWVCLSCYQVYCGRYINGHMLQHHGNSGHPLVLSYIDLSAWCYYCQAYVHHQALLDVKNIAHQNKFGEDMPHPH

[7] = system: A-375; test: Antiproliferative activity against human A375 cells after 72 hrs by MTT assay; format: functional, cell-based; details: A-375, 72 h
[8] = biological target: Histone deacetylase 11 (Homo sapiens, UniProt Q96DB2)
Description: Inhibition of recombinant HDAC11 (unknown origin) using AMC labeled AC-peptide as substrate incubated for 1 hr by fluorescence analysis

[9] = system: Mus musculus; test: Toxicity in Balb/c nude mouse xenografted with human HCT116 cells assessed as change in body weight at 50 mg/kg, iv q2d for 9 days; format: organism-based, HCT-116; details: in vivo, 216 h
[10] = Cytotoxicity against human SKBR3 cells after 72 hrs by MTT assay; format: functional, cell-based; details: SK-BR-3, 72 h
[11] = system: Mus musculus; test: Toxicity in Balb/c nude mouse xenografted with human HCT116 cells assessed as change in body weight at 25 mg/kg, po q2d for 8 days; format: organism-based, HCT-116; details: in vivo, 192 h
[12] = system: A2780; test: Cytotoxicity against human A2780 cells after 72 hrs by MTT assay; format: functional, cell-based; details: A2780, 72 h
[13] = biological target: Histone deacetylase 1/2/3 (Homo sapiens) (UniProt Q13547+O15379+Q92769); details: MV4-11, 1000 nM
Description: Inhibition of HDAC1/2/3 in human MV4-11 cells assessed as upregulation of histone H3 acetylation at 1000 nM after 6 hrs by Western blot analysis

[14] = system: Ramos; test: Antitumor activity against human Ramos cells xenografted in NOD/SCID mouse assessed as tumor mass change at 40 mg/kg, po q2d for 6 days; format: functional
[15] = system: Mus musculus; test: Toxicity in Balb/c nude mouse xenografted with human HCT116 cells assessed as death at 25 mg/kg, po q2d for 8 days; format: organism-based, HCT-116; details: in vivo, 192 h
[16] = biological target: T2, Protein deacetylase HDAC6 (Homo sapiens, UniProt Q9UBN7); test: Inhibition of HDAC6 in human HeLa cells assessed as induction of tubulin acetylation incubated for 6 hrs by cytoblot assay; format: cell-based
T2 sequence (Q9UBN7 whole entry): T1 sequence (whole entry)

[17] = AUC (0 to infinity) in Sprague-Dawley rat at 12 mg/kg, po measured up to 24 hrs by LC-MS/MS analysis; format: ADME, organism-based; set-up: dose 12 mg/kg, route oral, time infinity; details: in vivo
[18] = system: K562; test: Cytotoxicity against human K562 cells after 72 hrs by MTT assay; format: functional, cell-based; details: K562, 72 h
[19] = system: Ramos; test: Antitumor activity against human Ramos cells xenografted in orally dosed NOD/SCID mouse assessed as tumor mass reduction administered as q2d for 6 days; format: functional, organism-based
[20] = biological target: Histone deacetylase 5 (Homo sapiens, UniProt Q9UQL6); test: Inhibition of recombinant HDAC5 (unknown origin) using AMC labeled AC-peptide as substrate at 10 uM incubated for 1 hr by fluorescence analysis
[21] = Systemic clearance in Sprague-Dawley rat at 12 mg/kg, po measured up to 24 hrs by LC-MS/MS analysis; format: ADME, organism-based; details: in vivo

Sequence of Histone deacetylase 11 (Q96DB2 whole entry): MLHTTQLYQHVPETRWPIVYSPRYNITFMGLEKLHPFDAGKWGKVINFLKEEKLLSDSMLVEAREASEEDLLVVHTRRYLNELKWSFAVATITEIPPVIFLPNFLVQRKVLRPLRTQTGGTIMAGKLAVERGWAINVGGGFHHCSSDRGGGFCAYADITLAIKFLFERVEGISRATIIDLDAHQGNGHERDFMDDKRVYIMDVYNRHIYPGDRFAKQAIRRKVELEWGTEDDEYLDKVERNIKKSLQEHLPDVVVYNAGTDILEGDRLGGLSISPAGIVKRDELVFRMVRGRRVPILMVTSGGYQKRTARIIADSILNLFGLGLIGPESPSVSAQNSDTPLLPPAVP
Sequence of Histone deacetylase 5 (Q9UQL6 whole entry): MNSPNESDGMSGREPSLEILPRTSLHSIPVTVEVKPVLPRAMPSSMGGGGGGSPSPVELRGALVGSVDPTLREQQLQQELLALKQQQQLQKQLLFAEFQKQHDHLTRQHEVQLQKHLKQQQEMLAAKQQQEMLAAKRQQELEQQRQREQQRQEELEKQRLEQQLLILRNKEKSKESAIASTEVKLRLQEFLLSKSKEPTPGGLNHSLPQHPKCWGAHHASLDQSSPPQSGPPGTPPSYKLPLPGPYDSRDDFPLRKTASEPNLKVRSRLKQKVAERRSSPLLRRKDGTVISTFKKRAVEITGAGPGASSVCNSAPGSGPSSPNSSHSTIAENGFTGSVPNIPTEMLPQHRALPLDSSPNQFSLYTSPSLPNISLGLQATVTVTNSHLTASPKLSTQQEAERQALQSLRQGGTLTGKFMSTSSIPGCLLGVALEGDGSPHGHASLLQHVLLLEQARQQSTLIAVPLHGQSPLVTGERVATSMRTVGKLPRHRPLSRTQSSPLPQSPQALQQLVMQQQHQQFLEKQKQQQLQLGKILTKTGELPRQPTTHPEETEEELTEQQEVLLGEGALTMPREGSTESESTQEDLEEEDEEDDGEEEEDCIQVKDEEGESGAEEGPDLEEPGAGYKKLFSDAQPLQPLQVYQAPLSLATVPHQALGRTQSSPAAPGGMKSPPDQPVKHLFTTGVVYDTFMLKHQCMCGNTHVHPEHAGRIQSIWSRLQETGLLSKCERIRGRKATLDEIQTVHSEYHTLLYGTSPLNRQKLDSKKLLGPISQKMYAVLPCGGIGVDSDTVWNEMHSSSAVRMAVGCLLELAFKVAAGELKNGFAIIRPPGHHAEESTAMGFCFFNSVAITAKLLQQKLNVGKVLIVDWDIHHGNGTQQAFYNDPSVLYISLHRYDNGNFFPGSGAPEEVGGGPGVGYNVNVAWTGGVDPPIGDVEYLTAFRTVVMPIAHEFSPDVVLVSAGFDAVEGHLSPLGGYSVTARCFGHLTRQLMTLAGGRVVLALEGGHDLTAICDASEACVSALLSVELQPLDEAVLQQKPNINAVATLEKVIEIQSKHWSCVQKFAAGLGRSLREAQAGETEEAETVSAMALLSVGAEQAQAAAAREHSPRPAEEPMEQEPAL
Sequence of Histone deacetylase 9 (Q9UKV0 whole entry): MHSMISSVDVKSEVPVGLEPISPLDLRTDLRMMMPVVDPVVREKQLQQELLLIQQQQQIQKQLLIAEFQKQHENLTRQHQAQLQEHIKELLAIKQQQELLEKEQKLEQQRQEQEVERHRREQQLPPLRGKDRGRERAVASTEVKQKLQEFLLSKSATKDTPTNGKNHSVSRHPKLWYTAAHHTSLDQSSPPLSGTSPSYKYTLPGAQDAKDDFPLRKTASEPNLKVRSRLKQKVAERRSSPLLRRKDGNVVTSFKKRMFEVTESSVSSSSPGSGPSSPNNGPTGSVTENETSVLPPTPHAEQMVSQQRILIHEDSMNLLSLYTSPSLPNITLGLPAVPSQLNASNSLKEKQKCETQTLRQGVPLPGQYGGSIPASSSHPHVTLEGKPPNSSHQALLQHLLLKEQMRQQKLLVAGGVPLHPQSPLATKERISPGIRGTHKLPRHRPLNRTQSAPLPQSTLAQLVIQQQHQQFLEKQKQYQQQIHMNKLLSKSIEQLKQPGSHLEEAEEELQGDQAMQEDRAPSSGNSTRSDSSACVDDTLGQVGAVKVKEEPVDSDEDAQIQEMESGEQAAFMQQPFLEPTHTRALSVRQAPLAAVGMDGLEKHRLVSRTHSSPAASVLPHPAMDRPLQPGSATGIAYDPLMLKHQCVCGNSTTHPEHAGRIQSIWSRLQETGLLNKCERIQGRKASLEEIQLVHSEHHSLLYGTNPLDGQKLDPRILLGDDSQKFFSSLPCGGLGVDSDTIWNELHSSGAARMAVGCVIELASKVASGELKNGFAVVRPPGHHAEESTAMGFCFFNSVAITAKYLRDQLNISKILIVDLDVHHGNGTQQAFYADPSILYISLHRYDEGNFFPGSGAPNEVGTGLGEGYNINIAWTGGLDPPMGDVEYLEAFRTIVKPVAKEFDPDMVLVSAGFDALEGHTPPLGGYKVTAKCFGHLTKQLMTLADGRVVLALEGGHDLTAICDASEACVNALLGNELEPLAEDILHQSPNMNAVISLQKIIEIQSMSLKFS

SMILES: COc1ccc(N(C)c2nc(C)nc3ccccc23)cc1OCCCC(=O)NO
- AUC(0-inf) [1]: 2430 ng·h/mL
- IC50 [2]: > 10000 nM
- Activity [3]: Non-toxic
- Activity [4]: 55%
- IC50 [5]: 50 nM
- inhibition [6]: Dose-dependent effect
- IC50 [7]: 45 nM
- IC50 [8]: > 10000 nM
- Activity [9]: -5.7%
- IC50 [10]: 22 nM
- Activity [11]: -3.8%
- IC50 [12]: 46 nM
- inhibition [13]: Active
- Activity [14]: 22.5%
- Activity [15]: Non-toxic
- EC50 [16]: 58.9 nM
- AUC(0-inf) [17]: 1240 ng·h/mL
- IC50 [18]: 63 nM
- inhibition [19]: Dose-dependent effect
- inhibition [20]: inactive
- CL/F [21]: 215 mL/min/kg
